Assay results: patent US9062095B2, “Mutant double cyclized receptor peptides inhibiting β1-adrenoceptor antibodies” (JULIUS-MAXIMILIANS-UNIVERSTITAT-WURZBURG, priority 2007, dated 2015)
Positions of bridges follow the written chain, without caps; N, C: chain ends. No end group written: not given here.

Key:
anti-β1-ECII antibodies = assay: ELISA-competition assay: peptide preincubated with sera/IgG of immunized antibody-positive rats, linear 25AA Cys/Cys-peptide as antigen; format: binding, rat; parameters: blocking capacity (% of blocked versus non-blocked ELISA-reactivity): concentration or dose not given beside the values; conditions: for decrease in circulating free anti-beta1-ECII antibodies: n=6 sera (FIG. 11); for blocking capacity (% of blocked versus non-blocked ELISA-reactivity): IgG from n=78 immunized antibody-positive rats, preincubation 12 h, mutants with D-Glu ring closure (FIG. 7); for blocking capacity (% of blocked versus non-blocked ELISA-reactivity) / blocking-efficiency versus unblocked sera: 4° C.; for blocking capacity (% of blocked versus non-blocked ELISA-reactivity) / blocking efficiency (% of blocked versus non-blocked ELISA reactivity) / blocking capacity (% of blocked versus non-blocked ELISA reactivity): ±SEM; for blocking-efficiency versus unblocked sera: n=6 sera, incubation 12-14 h, mean ±SEM (FIG. 27); for blocking efficiency (% of blocked versus non-blocked ELISA reactivity): type1 sera (93%, n=64 of 69), FIG. 9 upper panel; for blocking capacity (% of blocked versus non-blocked ELISA reactivity): type 2 sera (7%, n=5 of 69), FIG. 9 lower panel
Experimental: FIG. 9 is a diagram composed of two major-(upper and lower) panels resuming the blocking effect of both 25AA- and 18AA-cyclopeptide mutants having a Gln closure site, as well as 18AA cyclopeptide mutants having a D-Glu closure site after preincubation (12 h, 4° C., rotating incubation) with sera isolated from 69 different immunized antibody-positive rats in an ELISA-competition assay using the 3 Cys-containing linear 25AA Cys/Cys-peptide as an antigen. The upper panel depicts rat sera preferentially reacting with the Cys/Ser mutated cyclopeptides (type1 reaction, n=64), separated in cyc25AA(Gln)-peptides (left) and cyc18AA(Gln and D-Glu)-peptides (right). The lower panel depicts the rat sera reacting with both the Cys/Ser and the Ser/Cys mutated cyclopeptides (type2 reaction, n=5), again separated in the results obtained with cyc25AA(Gln)-peptides (left) and cyc18AA(Gln and D-Glu)-peptides (right).
FIG. 11 is a diagram resuming the dose-dependent (x-axis, abscissa: fold molar excess of specific peptides) blocking capacity of various linear and cyclic beta1-ECII-peptides given in % of the unblocked antibody-titer (y-axis, ordinate), including 25AA Cys/Cys linear peptides (black squares), 25AA Cys/Ser cyclopeptide mutants (white squares), 18AA Cys/Cys cyclo-peptides (black diamonds), 18AA Cys/Ser cyclopeptide mutants (white diamonds), and 18AA Cys/Ser linear peptide mutants (vertically hatched diamonds) in an ELISA competition assay performed with sera from n=6 randomly chosen immunized antibody-positive rats.
FIGS. 27A and B depict the in vitro blocking (=neutralization) capacity of various cysteine-containing cyclopeptide variants of the second extracellular loop (ECII) of the human beta1-adrenergic receptor, determined by testing n=6 individual sera (27A) of immunized beta1-ECII-antibody-positive rats after over-night incubation with the indicated cyclopeptides (12-14 h, 4° C.) by ELISA. Columns in 27A represent the receptor-antibody blocking efficiency of the indicated cyclopeptides in % of the antibody-(ELISA-)signals obtained with unblocked antibody-positive rat sera. Columns in 27B represent the mean blocking efficiency for each cyclopeptide, error bars indicate ±SEM.
The blocking capacity of β1-ECII-18AA cyclopeptide mutants (Cys13-Ser14 or Ser13-Cys14 mutation having an additional D-Glu-Gln exchange, e.g. at the ring closure site) was compared with the 3 Cys-containing 25AA or 18AA Cys/Cys cyclopeptides after preincubation (12 h, 4° C., rotating incubation over-night) of different numbers of sera from immunized antibody-positive rats in an ELISA-competition assay using the 3 Cys-containing linear 25AA Cys/Cys-peptide as an antigen. FIGS. 4, 5, and 7-10 show the results from measurements performed with sera of n=12 up to n=82 immunized antibody-positive rats using different cyclopeptides of the present invention.

[1] = system: beta1-receptor antibodies; assay: in vivo prevention study: five prophylactic peptide applications, serum antibody-titers by ELISA; parameters: species or system rat; conditions: 1.0 mg/kg body weight i.v., 4-weekly, prevention protocol (FIG. 12)
Experimental: FIG. 12 is a diagram resuming the in vivo blocking capacity of in total five (prophylatic) applications of various linear and cyclic beta1-ECII-peptides, started 3 months after the first immunization (and two subsequent beta1-ECII/GST-antigen-boosts, corresponding to a prevention protocol). Serum-titers of the beta1-receptor antibodies were determined before and 18-20 h after each peptide injection (abscissa, time in months) and are given in % of the corresponding antibody-titers of immunized untreated rats (y-axis, ordinate). The injected peptides were: 25AA Cys/Cys linear peptide (black squares), […] (white squares), 18AA Cys/Cys cyclopeptide (black diamond), 18AA Cys/Ser cyclopeptide mutant (white diamonds), and the 18AA Cys/Ser linear peptide mutant (vertically hatched diamonds). […] Black circles indicate antibody-titers of untreated regularly (every 4 weeks) immunized animals serving as reference, set at 100%.
The in-vivo blocking effects of both 25AA and 18AA Cys/Ser mutant cyclopeptides (with a Gln closure site), the 18AA Ser/Cys mutant cyclopeptide, and a mutated linear 18AA Cys/Ser peptide were analyzed after intravenous (i.v.) injection of 1.0 mg/kg body weight (Bw) of each construct into freshly immunized antibody-positive rats (i.e., use of cyclo-peptides in a kind of “prevention” study), with a first cyclopeptide-application 3 months after the initial immunization (and two subsequent boost at months 2 and 3). In total, five prophylactic applications of the various constructs were given at 4-weekly intervals, always two weeks after the monthly continued antigen boost. Sera were drawn 18-20 hours after i.v. injection and assayed for reactivity by ELISA using the 3 Cys-containing linear 25AA Cys/Cys-peptide as an antigen (FIG. 12).

[2] = system: anti-beta1-receptor antibody-titers; assay: in vivo therapy study in long term immunized cardiomyopathic rats: antibody-titers by ELISA; parameters: species or system rat
Experimental: FIG. 16A is a diagram resuming the in vivo blocking effect of both 25AA and 18AA cyclopeptide mutants with a Gln closure site, determined after a total of nine intravenous (i.v.) in-jections of 1.0 mg/kg body weight (Bw) of the indicated peptides into immunized antibody-positive rats. Sera were drawn before and 18-20 hours after i.v. injection of the various peptides every 4 weeks (abscissa: time in months of treatment) and assayed for reactivity by ELISA using the 3 Cys-containing linear 25AA Cys/Cys-peptide as an antigen.
FIG. 16B is a diagram resuming the in vivo blocking effect of various concentrations of 18AA cyclopeptide mutants with a Gln closure site, determined after a total of nine intra-venous (i.v.) injections of 0.25, 1.0, 2.0, and 4.0 mg/kg body weight (Bw) into immunized antibody-positive rats, irrespective of the cyclopeptide “responder-state” of individual animals. Sera were drawn before and 18-20 hours after i.v. injection of the various peptides every 4 weeks (abscissa: time in months), and assayed for reactivity by ELISA using the 3 Cys-containing linear 25AA Cys/Cys-peptide as an antigen.
Sera were drawn as described above and assayed for reactivity by ELISA using the 3 Cys-containing linear 25AA Cys/Cys-peptide as an antigen.
Moreover, the in vivo blocking effects of therapeutically used 25AA and 18AA Cys/Ser cyclo-peptide mutants, the 18AA Ser/Cys mutant (Gln-)cyclopeptide, and a mutated linear 18AA Cys/Ser peptide were assessed after a first intravenous (i.v.) dose (i.e., 1.0 mg/kg body weight (Bw)) of each construct injected into long term immunized anti-beta1-ECII antibody-positive rats, yet presenting a cardiomyopathic phenotype (after nine months of 1× monthly immunization with the beta1-ECII/GST antigen; FIGS. 14-16 and 17). Sera were drawn 18-20 hours after the first i.v. injection of the various constructions and assayed for reactivity by ELISA using the 3 Cys-containing linear 25AA Cys/Cys-peptide as an antigen.
The latter doses were almost equally efficient in terms of both, neutralization of circulating receptor antibodies (FIGS. 16b and c), and reversal of antibody-induced cardiomyopathic features (FIGS. 17b, 19b, 20, and 21b).
In order to generate anti-β1-receptor antibodies the animals were immunized with a fusion protein containing bacterial glutathione-S-transferase and the sequence of the second extra-cellular loop of the human β1-adrenergic receptor (GST/β1-ECII). Before treatment of the animals with mutated cyclopeptides according to the present invention, progressive dilated immune cardiomyopathy is observed after 6 to 8 months of regular immunization every four weeks (FIG. 17). All of the immunized animals developed high titers of stimulatory anti-β1-ECII antibodies. The specific anti-β1-ECII titer reached a maximum between 6 and 8 months of continuously boosting the animals every 4 weeks, whereas NaCl-injected control animals developed no specific receptor antibodies (FIG. 18).
Such immunized animals were used for the application of mutant cyclopeptides according to the present invention. The in-vivo blocking effect of both 25AA and 18AA Cys/Ser mutant cyclopeptides (with a Gln closure site) were determined after a first intravenous (i.v.) injection of 1.0 mg/kg body weight (Bw) (for 18AA Cys/Ser cyclopeptides also 0.25 mg/kg/Bw) into immunized antibody-positive rats. Sera were drawn 18-20 hours after i.v. injection of the different peptides and assayed for reactivity by ELISA using the 3 Cys-containing linear 25AA Cys/Cys-peptide as an antigen.

[3] = 20-fold molar excess of peptide
[4] = 80-fold molar excess of peptide

Substance | decrease in circulating free anti-beta1-ECII antibodies (anti-β1-ECII antibodies; 8-fold molar excess of peptide) [%] | decrease in circulating free anti-beta1-ECII antibodies (anti-β1-ECII antibodies; [3]) [%] | decrease in circulating free anti-beta1-ECII antibodies (anti-β1-ECII antibodies; [4]) | blocking capacity (% of blocked versus non-blocked ELISA-reactivity) (anti-β1-ECII antibodies) [%] | blocking-efficiency versus unblocked sera (anti-β1-ECII antibodies) [%] | blocking efficiency (% of blocked versus non-blocked ELISA reactivity) (anti-β1-ECII antibodies) [%] | blocking capacity (% of blocked versus non-blocked ELISA reactivity) (anti-β1-ECII antibodies) [%] | antibody-titer decrease after 5 injections, compared with untreated immunized animals [1] [%] | initial transient increase in antibody-titers ([2]; 1.0 mg/kg Bw (FIGS. 16a and b)) | absolute decrease in antibody-titers after 9 months of treatment, of the titer at start of therapy ([2]; 1.0 mg/kg i.v. every 4 weeks) [%] | fraction of rat sera blocked by the peptide (anti-β1-ECII antibodies; n=69 sera, (Gln-)cyclopeptide mutants (FIG. 10), Cys/Ser = blocked by it alone (n=64), Ser/Cys = sera blocked by both (n=5)) | in vivo blocking capacity after the first i.v. injection ([2]; 1 mg/kg Bw, sera 18-20 hours after injection (FIGS. 14 and 15))
18AA Cys/Cys cyclopeptides: (non-mutated) 3 Cys-containing β1-ECII-homologous 18AA cyclopeptide (cyclo(ADEARRCYNDPKCCDFVQ); not fully specified (bridges); cysteine pairing not given here) [reference compound] | 46 | 56 | 71% | 60±4 | 66.1±7.0 | 59±2 | 67±6 | 89.9±3 | – | – | – | –
ARAESDEARRCYNDPKCCDFVTNRQ (cysteine pairing not given here) [linear 25AA Cys/Cys peptides, reference compound] | 24 | 35 | about 50% | 55±4 | – | – | – | 25.8±3 | – | – | – | –
Cyclo-Ala-Arg-Ala-Glu-Ser-Asp-Glu-Ala-Arg-Arg-Cys-Tyr-Asn-Asp-Pro-Lys-Cys-Ser-Asp-Phe-Val-Thr-Asn-Arg-Gln (cyclo(ARAESDEARRCYNDPKCSDFVTNRQ); disulfide 11-17 (inferred)) [25AA Cys/Ser mutant cyclopeptides] | 30 | 49 | 83% | – | – | 69±2 | 48±6 | – | transient increase in antibody-titers | −37±13 | – | –
cyc22AA Cys/Cys: 3 cysteine-containing cyclic 22AA beta1-ECII peptide with a Gly closure site (cyclo(RAESDEARRCYNDPKCCDFVTG); disulfide (positions not given here)) [reference compound] | – | – | – | – | 82.0±5.0 | – | – | – | – | – | – | –
cyclo(Ala-Asp-Glu-Ala-Arg-Arg-Cys-Tyr-Asn-Asp-Pro-Lys-Ser-Cys-Asp-Phe-Val-Gln) (cyclo(ADEARRCYNDPKSCDFVQ); disulfide 7-14 (inferred)) [18AA Ser/Cys with Gln-] | – | – | – | – | – | 1±2 | 47±3 | – | – | – | about 7% | clearly less efficient
